These molecules were tested against T1, hTRPV3 (Homo sapiens, UniProt Q8NET8) (assay: Whole cell patch clamp inhibition rate test on HEK-293 cells instantaneously expressing TRPV3). Settings: HEK293; hTRPV3, single concentration 0.3 μM.
T1 construct: expressed in transfected cells; host or cells: HEK-293
T1 sequence (Q8NET8 1-790): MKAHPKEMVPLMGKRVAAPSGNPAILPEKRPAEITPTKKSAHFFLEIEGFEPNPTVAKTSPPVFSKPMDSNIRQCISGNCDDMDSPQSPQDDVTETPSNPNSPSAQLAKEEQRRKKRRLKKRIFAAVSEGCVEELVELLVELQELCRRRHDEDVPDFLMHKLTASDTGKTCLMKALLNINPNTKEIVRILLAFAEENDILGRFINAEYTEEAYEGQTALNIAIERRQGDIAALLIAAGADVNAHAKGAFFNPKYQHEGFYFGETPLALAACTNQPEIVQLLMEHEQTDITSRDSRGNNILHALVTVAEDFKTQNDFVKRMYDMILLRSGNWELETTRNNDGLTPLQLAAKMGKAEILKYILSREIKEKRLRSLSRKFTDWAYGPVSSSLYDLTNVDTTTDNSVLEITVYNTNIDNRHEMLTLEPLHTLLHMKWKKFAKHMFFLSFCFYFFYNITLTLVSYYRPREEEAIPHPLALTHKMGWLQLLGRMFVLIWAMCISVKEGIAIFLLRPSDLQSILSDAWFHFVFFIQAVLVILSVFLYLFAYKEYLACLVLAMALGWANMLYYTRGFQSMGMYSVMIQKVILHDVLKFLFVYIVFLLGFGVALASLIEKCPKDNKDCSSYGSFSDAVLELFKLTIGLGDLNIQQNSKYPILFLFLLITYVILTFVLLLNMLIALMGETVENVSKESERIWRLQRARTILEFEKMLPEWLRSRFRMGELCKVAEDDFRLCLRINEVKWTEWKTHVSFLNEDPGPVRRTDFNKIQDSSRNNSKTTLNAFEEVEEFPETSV
Format: cell-based
Experimental: In this study, HEK-293 cells instantaneously expressing TRPV3 were used for experimental detection.
The operation steps are as follows:
The cells were cultured in DMEM medium containing 10% fetal bovine serum at a temperature of 37° C. and a carbon dioxide concentration of 5%.
Day 1: Cells were inoculated into a 6-well plate with 5×10^5 cells per well.
Day 2: Transfection was performed using Lipofectamine 3000 transfection reagent, with a plasmid to transfection reagent ratio of 1 μg: 2 μL. The total amount of plasmid used per well was 3 μg. Specifically, two sterile centrifuge tubes were taken and 100 μL Opti-MEM was added to each tube. 6 μL Lipofectamine 3000 was added to one tube and mixed well; and 3 μg plasmid was added to another tube and mixed well, and then 6 μL P3000 was added and mixed well; Subsequently, the diluted plasmid DNA was added to diluted Lipofectamine 3000 and incubated at room temperature for 10-15 min. DNA liposome complex was dropped into the cells, shaked gently and mixed well, and then cultured in an incubator. The liquid was changed after 4 to 6 h.
Day 3: The cells were digested and seeded into 24 well plates with pre-placed cover slides, with 8×10^3 cells per well.
Day 4: Patch clamp testing was performed.
The voltage stimulation protocol for recording TRPV3 current using whole cell patch clamp is as follows: after forming a whole cell seal, a cell membrane voltage clamp was set at −80 mV. Firstly, a membrane potential was recorded at 0 mV, and then a voltage was command to start from −100 mV, to depolarize in the form of Ramp to 100 mV within 100 ms, and finally restore to 0 mV. Data collection was repeated every 5 seconds to observe the inhibitory effect of pharmaceutical on peak current. Experimental data was collected by EPC 10 amplifier (HEKA) and stored in PatchMaster (HEKA) software.
A microelectrode puller was used to pull the capillary glass tube into a recording electrode. The electrode filled with intracellular fluid was inserted into a microelectrode holder, and a microelectrode manipulator was operated under an inverted microscope to immerse the electrode in extracellular fluid and an electrode resistance (Rpip) was recorded. The electrode was brought into contact with the cell surface and a negative pressure suction was applied to form a high resistance seal (GΩ). At this point, a fast capacitance compensation was performed, and negative pressure was continued to apply in order to break the cell membrane, so that a whole cell recording mode was formed. Then, a slow capacitance compensation was performed and experimental parameters such as film capacitance (Cm) and series resistance (Rs) were recorded. No leakage compensation was provided.
When the TRPV3 current recorded by the whole cell had stabilized, administration was started. Each pharmaceutical concentration acted for 5 minutes (or until the current stabilized) before detecting the next concentration. A plurality of concentrations was tested for each test compound. A cover glass covered with cells was placed in a recording bath under an inverted microscope. A blank control extracellular solution and a working fluid for the compound to be tested sequentially flowed through the recording bath from low concentration to high concentration using gravity perfusion to act on the cells. Liquid exchange was performed using a peristaltic pump during recording. The current detected by each cell in the extracellular fluid without the compound served as its own control group. Each concentration was independently tested twice using at least two cells. All electrophysiological tests were conducted at room temperature.

Row | inhibition at 0.3 µM [%] | Compound
1 | < 25 | CC(C)c1ccccc1-c1ccc2c(c1)[C@@H](O)C[C@]21CCN(C(=O)c2ccc(F)cn2)C1 [Example 27]
2 | < 25 | CC(C)c1ccccc1-c1ccc2c(c1)[C@@H](O)C[C@@]21CCN(C(=O)c2ccc(F)cn2)C1 [Example 28]
3 | 70 to 100 | O=C(c1csc(Cl)n1)N1CC[C@@]2(C[C@@H](O)c3cc(-c4ccccc4C4CC4)ccc32)C1 [Example 29, (2-chlorothiazol-4-yl)((1S,3R)-5-(2-cyclopropylphenyl)-3-hydroxy-2,3-dihydrospiro[indene-1,3′-pyrrolidine]-1′-yl)ketone]
4 | < 25 | O=C(c1csc(Cl)n1)N1CC[C@]2(C[C@@H](O)c3cc(-c4ccccc4C4CC4)ccc32)C1 [Example 30, (2-chlorothiazol-4-yl)((1R,3R)-5-(2-cyclopropylphenyl)-3-hydroxy-2,3-dihydrospiro[indene-1,3′-pyrrolidine]-1′-yl)ketone]
5 | < 25 | O=C(c1csc(Cl)n1)N1CC[C@@]2(C[C@H](O)c3cc(-c4ccccc4C4CC4)ccc32)C1 [Example 31, (2-chlorothiazol-4-yl)((1S,3S)-5-(2-cyclopropylphenyl)-3-hydroxy-2,3-dihydrospiro[indene-1,3′-pyrrolidine]-1′-yl)ketone]
6 | < 25 | O=C(c1csc(Cl)n1)N1CC[C@]2(C[C@H](O)c3cc(-c4ccccc4C4CC4)ccc32)C1 [Example 32, (2-chlorothiazol-4-yl)((1R,3S)-5-(2-cyclopropylphenyl)-3-hydroxy-2,3-dihydrospiro[indene-1,3′-pyrrolidine]-1′-yl)ketone]
7 | 70 to 100 | CC(C)c1ccccc1-c1ccc2c(c1)[C@H](O)C[C@@]21CCN(C(=O)c2csc(Cl)n2)C1 [Example 33, (2-chlorothiazol-4-yl)((1S,3R)-3-hydroxy-5-(2-isopropylphenyl)-2,3-dihydrospiro[indene-1,3′-pyrrolidine]-1′-yl)ketone]
8 | < 25 | CC(C)c1ccccc1-c1ccc2c(c1)[C@H](O)C[C@]21CCN(C(=O)c2csc(Cl)n2)C1 [Example 34, (2-chlorothiazol-4-yl)((1R,3R)-3-hydroxy-5-(2-isopropylphenyl)-2,3-dihydrospiro[indene-1,3′-pyrrolidine]-1′-yl)ketone]
9 | < 25 | CC(C)c1ccccc1-c1ccc2c(c1)[C@@H](O)C[C@@]21CCN(C(=O)c2csc(Cl)n2)C1 [Example 35, (2-chlorothiazol-4-yl)((1S,3S)-3-hydroxy-5-(2-isopropylphenyl)-2,3-dihydrospiro[indene-1,3′-pyrrolidine]-1′-yl)ketone]
10 | < 25 | CC(C)c1ccccc1-c1ccc2c(c1)[C@@H](O)C[C@]21CCN(C(=O)c2csc(Cl)n2)C1 [Example 36, (2-chlorothiazol-4-yl)((1R,3S)-3-hydroxy-5-(2-isopropylphenyl)-2,3-dihydrospiro[indene-1,3′-pyrrolidine]-1′-yl)ketone]
11 | 70 to 100 | O=C(c1cccc(C2CC2)n1)N1CC[C@@]2(C[C@@H](O)c3cc(-c4ccccc4C4CC4)ccc32)C1 [Example 37, ((1S,3R)-5-(2-cyclopropylphenyl)-3-hydroxy-2,3-dihydrospiro[indene-1,3′-pyrrolidine]-1′-yl)(6-cyclopropylpyridin-2-yl) ketone]
12 | < 25 | O=C(c1cccc(C2CC2)n1)N1CC[C@]2(C[C@@H](O)c3cc(-c4ccccc4C4CC4)ccc32)C1 [Example 38, ((1R,3R)-5-(2-cyclopropylphenyl)-3-hydroxy-2,3-dihydrospiro[indene-1,3′-pyrrolidine]-1′-yl)(6-cyclopropylpyridin-2-yl) ketone]
13 | < 25 | O=C(c1cccc(C2CC2)n1)N1CC[C@@]2(C[C@H](O)c3cc(-c4ccccc4C4CC4)ccc32)C1 [Example 39, ((1S,3S)-5-(2-cyclopropylphenyl)-3-hydroxy-2,3-dihydrospiro[indene-1,3′-pyrrolidine]-1′-yl)(6-cyclopropylpyridin-2-yl) ketone]
14 | < 25 | O=C(c1cccc(C2CC2)n1)N1CC[C@]2(C[C@H](O)c3cc(-c4ccccc4C4CC4)ccc32)C1 [Example 40, ((1R,3S)-5-(2-cyclopropylphenyl)-3-hydroxy-2,3-dihydrospiro[indene-1,3′-pyrrolidine]-1′-yl)(6-cyclopropylpyridin-2-yl) ketone]
15 | 70 to 100 | CC(C)c1ccccc1-c1ccc2c(c1)[C@H](O)C[C@@]21CCN(C(=O)c2cccc(C3CC3)n2)C1 [Example 41, (6-cyclopropylpyridin-2-yl)((1S,3R)-3-hydroxy-5-(2-isopropylphenyl)-2,3-dihydrospiro[indene-1,3′-pyrrolidine]-1′-yl)ketone]
16 | < 25 | CC(C)c1ccccc1-c1ccc2c(c1)[C@H](O)C[C@]21CCN(C(=O)c2cccc(C3CC3)n2)C1 [Example 42, (6-cyclopropylpyridin-2-yl)((1R,3R)-3-hydroxy-5-(2-isopropylphenyl)-2,3-dihydrospiro[indene-1,3′-pyrrolidine]-1′-yl)ketone]
17 | < 25 | CC(C)c1ccccc1-c1ccc2c(c1)[C@@H](O)C[C@@]21CCN(C(=O)c2cccc(C3CC3)n2)C1 [Example 43, (6-cyclopropylpyridin-2-yl)((1S,3S)-3-hydroxy-5-(2-isopropylphenyl)-2,3-dihydrospiro[indene-1,3′-pyrrolidine]-1′-yl)ketone]
18 | < 25 | CC(C)c1ccccc1-c1ccc2c(c1)[C@@H](O)C[C@]21CCN(C(=O)c2cccc(C3CC3)n2)C1 [Example 44, (6-cyclopropylpyridin-2-yl)((1R,3S)-3-hydroxy-5-(2-isopropylphenyl)-2,3-dihydrospiro[indene-1,3′-pyrrolidine]-1′-yl)ketone]
19 | 70 to 100 | O=C(c1ccc(F)cn1)N1CCC2(C[C@@H](O)c3cc(-c4ccccc4C4CC4)ccc32)C1 (stereo partly drawn) [Example 45, ((3R)-5-(2-cyclopropylphenyl)-3-hydroxy-2,3-dihydrospiro[indene-1,3′-pyrrolidine]-1′-yl)(5-fluoropyridin-2-yl) ketone]
20 | < 25 | O=C(c1ccc(F)cn1)N1CCC2(C[C@H](O)c3cc(-c4ccccc4C4CC4)ccc32)C1 (stereo partly drawn) [Example 46, ((3S)-5-(2-cyclopropylphenyl)-3-hydroxy-2,3-dihydrospiro[indene-1,3′-pyrrolidine]-1′-yl)(5-fluoropyridin-2-yl) ketone]
21 | < 25 | COCc1cccc(C(=O)N2CCC3(CC(O)c4cc(-c5ccccc5C5CC5)ccc43)C2)n1 (stereo not shown) [Example 47, (5-(2-cyclopropylphenyl)-3-hydroxy-2,3-dihydrospiro[indene-1,3′-pyrrolidine]-1′-yl)(6-(methoxymethyl)pyridin-2-yl) ketone]
22 | 70 to 100 | CNc1cncc(C(=O)N2CCC3(CC(O)c4cc(-c5ccccc5C5CC5)ccc43)C2)n1 (stereo not shown) [Example 48, (5-(2-cyclopropylphenyl)-3-hydroxy-2,3-dihydrospiro[indene-1,3′-pyrrolidine]-1′-yl)(6-(methylamino)pyrazin-2-yl) ketone]

Reference: patent publication US20260174786A1, “A NITROGEN-CONTAINING SPIROCYCLIC COMPOUND, PHARMACEUTICAL COMPOSITION AND USE THEREOF” (Prime Gene Therapeutics Co., Ltd., priority 2022, published 2026)
